Tests used:
Assay type in all cases: cell-based
[1] = system: Streptococcus faecalis; assay: MIC, test tube serial dilution, Streptococcus faecalis
[2] = system: Klebsiella-Aerobacter; assay: MIC, test tube serial dilution, Klebsiella-Aerobacter; settings: Table 3
[3] = system: Proteus morganii; assay: MIC, test tube serial dilution, Proteus morganii; settings: Table 3; strain 932
[4] = system: Proteus vulgaris; assay: MIC, test tube serial dilution, Proteus vulgaris; settings: Table 3; strain 1017
[5] = system: Staphylococcus aureus; assay: MIC, test tube serial dilution, Staphylococcus aureus; settings: Table 3
[6] = system: Pseudomonas aeruginosa; assay: MIC, test tube serial dilution, Pseudomonas aeruginosa; settings: Table 3
[7] = system: Escherichia coli; assay: MIC, test tube serial dilution, Escherichia coli; settings: Table 3

SMILES | MIC ([1]; Table 3, ATCC 9790) [U/ml] | MIC ([2]; strain 63) [U/ml] | MIC ([2]; strain K 10) [U/ml] | MIC [3] [U/ml] | MIC [4] [U/ml] | MIC ([5]; strain 133) [U/ml] | MIC ([5]; strain 1756E) [U/ml] | MIC ([6]; strain F 41) [U/ml] | MIC ([6]; strain Walter) [U/ml] | MIC ([7]; strain 14) [U/ml] | MIC ([7]; strain 183/58) [U/ml] | MIC ([7]; strain A 261) [U/ml] | MIC ([7]; strain C 165) [U/ml] | MIC ([1]; unit assumed) [µg/mL]
CCS(=O)(=O)N1CCN(C(=O)N[C@@H](C(=O)N[C@@H]2C(=O)N3[C@@H]2SC(C)(C)[C@@H]3C(=O)O)c2ccccc2)C1=O [Penicillin No. 11 (Table 3), Sodium D(-)-α-[(3-ethylsulphonyl-imidazolidin-2-on-1-yl)-carbonylamino]-benzylpenicillin] | 64 | 16 | 16 | 16 | 4 | 2 | 128 | 64 | 64 | < 1 | 2 | 512 | 4 | –
CCS(=O)(=O)N1CCN(C(=O)NC(C(=O)N[C@@H]2C(=O)N3[C@@H]2SC(C)(C)[C@@H]3C(=O)O)c2ccc(Cl)cc2)C1=O (stereo partly drawn) [Penicillin No. 13 (Table 3), Sodium α-[(3-ethylsulphonyl-imidazolidin-2-on-1-yl)-carbonylamino]-p-chlorobenzylpenicillin] | 128 | 64 | 32 | 128 | 16 | 4 | 256 | 128 | 128 | 4 | 4 | > 256 | 8 | –
COC(=O)N1CCN(C(=O)NC(C(=O)N[C@@H]2C(=O)N3[C@@H]2SC(C)(C)[C@@H]3C(=O)O)c2ccc(Cl)cc2)C1=O (stereo partly drawn) [Penicillin No. 19 (Table 3), Sodium D,L-α-[(3-methoxycarbonyl-imidazolidin-2-on-1-yl)-carbonylamino]-4-chlorobenzylpenicillin] | – | 4 | 32 | 4 | 32 | – | 128 | 64 | 64 | 4 | 16 | > 256 | 8 | 32
COC(=O)N1CCN(C(=O)NC(C(=O)N[C@@H]2C(=O)N3[C@@H]2SC(C)(C)[C@@H]3C(=O)O)c2cccs2)C1=O (stereo partly drawn) [Penicillin No. 20 (Table 3), Sodium D,L-α-[(3-methoxycarbonyl-imidazolidin-2-on-1-yl)-carbonylamino]-α-thienyl(2)-methylpenicillin] | 16 | 32 | 32 | 32 | 8 | < 1 | 64 | 64 | 32 | 4 | 8 | > 256 | 8 | –

— patent US3983105A, “Penicillins” (Bayer Aktiengesellschaft, priority 1971, dated 1976)
